Source: US5208246A, “Tetralones with pharmacological activity” (J. Uriach & Cia., priority 1991, dated 1993)

Experiments:
[1] = system: trachea isolated from guinea pig; assay: Test 3: Direct relaxation of the trachea isolated from guinea pig; conditions: Cavia porcellus; 50% of the maximum relaxation; maximum = relaxation by isoproterenol at 1×10^-6 M; cumulative addition; basal tension 0.5 g; 37° C.
Protocol: Test 3-Direct relaxation of the trachea isolated from guinea pig.
This test was performed according to the experimental model described by Emmerson, J. and Mackay, D. (J. Pharm. Pharmacol., 1979, 31, 798). Tracheas were extracted from male guinea pigs of 400 g of body weight, which had been stunned by a blow in the head. Then, tracheas were cut in zigzag and placed into an isolated organ bath (Letica) containing Krebs-Henseleit solution at 37° C. and were bubbled with carbogen (95% O2 and 5% CO2). The relaxation of the trachea was measured using an isometric force transducer. The basal tension was 0.5 g.

hypertense rats = assay: Test 2: Lowering of the arterial pressure in concious hypertense rats; assay type: in vivo, rat; conditions: 1 mg/Kg p.o.; spontaneously hypertense rats, conscious; 3 animals; arterial pressure every 60 minutes during 4 hours
Protocol: Test 2: Lowering of the arterial pressure in concious hypertense rats.
Spontaneously hypertense rats (between 200 and 250 g of body weight) of more than 8 weeks of age have been used. Diastolic and systolic arterial pressure of the rat was measured at the caudal artery using a special sphygnomanometer (Letica 5007 and 5007/4) attached to the animal's tail. To ensure rapid and reliable data, animals were placed in a heating plate at 37° C., with the aim to produce a vasodilation that ensured a better fixation of the rat tail to the transfer chamber. During the experiment, rats are conscious and fixed to a clamp. The tested products were administered orally. Arterial pressure was measured every 60 minutes during 4 hours and 10 minutes before the administration of the tested compound. The decrease of the arterial pressure was calculated for each compound at a dose of 1 mg/Kg, using 3 animals.

[2] = system: portal vein isolated from rat; assay: Test 1: Inhibition of the contraction induced by noradrenaline in portal vein isolated from rat; conditions: 0.5 h
Protocol: Test 1: Inhibition of the contraction induced by noradrenaline in portal vein isolated from rat.
Portal vein was extracted from adult male rats (between 200 and 250 g of body weight), which had been stunned by a blow in the head. Portal vein was installed into an isolated organ bath (Letica) containing a physiological saline solution (Hamilton et al., Br. J. Pharmacol., 1986, 103-111) at 37° C. and a gas bubbler (5% CO2 and 95% O2). Contractions were induced by noradrenaline (3 μM) and were reverted after thoroughly washing with physiological saline solution. Portal vein contraction was measured with an isometric force transducer and with an initial tension of 1 g. After two contractions with noradrenaline, performed in order to measure the tissue's basal response, the tested compounds were incubated for 30 minutes and a new contraction was induced.

EC50 [1] [nM]	IC50 [2] [nM]	Structure (SMILES)	Pressure Decrease (hypertense rats) [mm Hg]
> 10000	28000	CC1(C)C(=O)c2ccc(Br)cc2[C@@H](n2ccccc2=O)[C@@H]1O (relative stereo) [Compound 14, Trans 6-bromo-4-(1,2-dihydro-2-oxo-1-pyridyl)-2,2-dimethyl-3-hydroxy-1,2,3,4-tetrahydronaphthalen-1-one]	23
99000	14000	CC1(C)C(=O)c2ccc(C#N)cc2[C@@H](n2ccccc2=O)[C@@H]1O (relative stereo) [Compound 23, Trans 4(1,2-dihydro-2-oxo-1-pyridyl)-2,2-dimethyl-3-hydroxy-1-oxo-1,2,3,4-tetrahydronaphthalen-6-carbonitrile]	84
–	21000	COc1ccc2c(c1)C(n1ccccc1=O)=CC(C)(C)C2=O [Compound 6, 1,2-dihydro-4-(1,2-dihydro-2-oxo-1-pyridyl)-2,2-dimethyl-6-methoxynaphthalen-1-one]	42.5
1100	1400	CC1(C)C=C(n2ccccc2=O)c2cc(Cl)ccc2C1=O [Compound 11, 6-chloro-1,2-dihydro-4-(1,2-dihydro-2-oxo-1-pyridyl)-2,2-dimethylnaphthalen-1-one]	53
200	500	CC1(C)C=C(n2ccccc2=O)c2cc(Br)ccc2C1=O [Compound 16, 6-bromo-1,2-dihydro-4-(1,2-dihydro-2-oxo-1-pyridyl)-2,2-dimethylnaphthalen-1-one]	–
100	600	CC1(C)C=C(n2ccccc2=O)c2cc(C#N)ccc2C1=O [Compound 26, 1,2-dihydro-4-(1,2-dihydro-2-oxo-1-pyridyl)-2,2-dimethyl-1-oxonaphthalen-6-carbonitrile]	96.5
900	800	CC1(C)C=C(N2CCCC2=O)c2cc(C#N)ccc2C1=O [Compound 30]	103
1500	4300	CC(=O)N(C)c1ccc2c(c1)C(n1ccccc1=O)=CC(C)(C)C2=O [Compound 38, 1,2-dihydro-4-(1,2-dihydro-2-oxo-1-pyridyl)-2,2-dimethyl-6N-methylacetamidonaphthalen-1-one]	49.3
31000	350	CC1(C)C=C(n2ccccc2=O)c2cc(C(F)(F)F)ccc2C1=O [Compound 42, 1,2-dihydro-4-(1,2-dihydro-2-oxo-1-pyridyl)-2,2-dimethyl-6-trifluoromethylnaphthalen-1-one]	103
250	980	C#Cc1ccc2c(c1)C(n1ccccc1=O)=CC(C)(C)C2=O [Compound 50, 1,2dihydro-4-(1,2-dihydro-2-oxo-1-pyridyl)-2,2-dimethyl-6-ethynylnaphthalen-1-one]	112
–	2700	CC1(C)C=C(n2ccccc2=O)c2ccc(Br)cc2C1=O [Compound 52, 7-bromo-1,2-dihydro-4-(1,2-dihydro-2-oxo-1-pyridyl)-2,2-dimethylnaphthalen-1-one]	37
–	> 10000	CC1(C)C=C(n2ccccc2=O)c2ccc(C#N)cc2C1=O [Compound 55, 1,2-dihydro-4-(1,2dihydro-2-oxo-1-pyridyl)-2,2-dimethyl-1-oxonaphthalen-7carbonitrile]	41
50	700	CC1(C)C=C(n2ccccc2=O)c2cc(Cl)c(Cl)cc2C1=O [Compound 58]	58

More lines, now with the values behind:

Structure (SMILES)	EC50 [1] [nM]	IC50 [2] [nM]	Pressure Decrease (hypertense rats) [mm Hg]
CC1(C)C(=O)c2ccc(Br)cc2[C@@H](N2CCCC2=O)[C@@H]1O (relative stereo) [Compound 18, Trans 6-bromo-2,2-dimethyl-3-hydroxy-4-(2-oxo-1-pyrrolidinyl)-1,2,3,4-tetrahydronaphthalen-1-one]	78000	> 10000	39
CC1(C)C(=O)c2ccc(Br)cc2[C@@H](N2Cc3ccccc3C2=O)[C@@H]1O (relative stereo) [Compound 22, Trans 6-bromo-4-(2,3-dihydro-1-oxo-1H-isoindol-2-yl)-2,2-dimethyl-3-hydroxy-1,2,3,4-tetrahydronaphthalen-1-one]	> 50000	3100	24
CC(=O)O[C@H]1[C@H](n2ccccc2=O)c2cc(C#N)ccc2C(=O)C1(C)C (relative stereo) [Compound 24, Trans 3-acetoxy-4-(1,2-dihydro-2-oxo-1-pyridyl)-2,2-dimethyl-1-oxo-1,2,3,4-tetrahydronaphthalen-6-carbonitrile]	2200	23000	64.7
CC(=O)N(C)c1ccc2c(c1)[C@@H](n1ccccc1=O)[C@H](O)C(C)(C)C2=O (relative stereo) [Compound 36, Trans 4-(1,2-dihydro-2-oxo-1-pyridyl)-2,2-dimethyl-3-hydroxy-6-N-methylacetamide-1,2,3,4-tetrahydronaphthalen-1-one]	> 100000	33000	94
CC1(C)C(=O)c2ccc(C(F)(F)F)cc2[C@@H](n2ccccc2=O)[C@@H]1O (relative stereo) [Compound 41, Trans 4-(1,2-dihydro-2-oxo-1-pyridyl)-2,2-dimethyl-3-hydroxy-1,2,3,4-tetrahydro-6-trifluoromethylnaphthalen-1-one]	1000	–	52.6
CC1(C)C(=O)c2cc(Cl)c(Cl)cc2[C@@H](n2ccccc2=O)[C@@H]1O (relative stereo) [Compound 57, Trans 6,7-dichloro-4-(1,2-dihydro-2-oxo-1-pyridyl)-2,2-dimethyl-3-hydroxy-1,2,3,4-tetrahydronaphthalen-1-one]	500	1500	52
CC1(C)C(=O)c2ccc(S(=O)(=O)c3ccccc3)cc2[C@@H](n2ccccc2=O)[C@@H]1O (relative stereo) [Compound 60, Trans 4-(1,2-dihydro-2-oxo-1-pyridyl)-2,2-dimethyl-3-hydroxy-6-phenylsulphonyl-1,2,3,4-tetrahydronaphthalen-1-one]	–	300	32.5
CC1(C)C=C(N2CCCC2=O)c2cc(Cl)ccc2C1=O [Compound 13, 6-chloro-1,2-dihydro-2,2-dimethyl-4-(2-oxo-1-pyrrolidinyl)naphthalen-1-one]	> 10000	> 10000	32
CC1(C)C=C(N2CCCC2=O)c2cc(Br)ccc2C1=O [Compound 21, 6-bromo-1,2-dihydro-2,2-dimethyl-4-(2-oxo-1-pyrrolidinyl)naphthalen-1-one]	19000	10000	60.5
CC(=O)N(C)c1ccc2c(c1)C(N1CCCC1=O)=CC(C)(C)C2=O [Compound 40, 1,2-dihydro-2,2-dimethyl-6-N-methylacetamido-4-(2-oxo-1-pyrrolidinyl)naphthalen-1-one]	2500	17000	23
CC1(C)C=C(n2ccccc2=O)c2cc(C#C[Si](C)(C)C)ccc2C1=O [Compound 49, 1,2-dihydro-4-(1,2-dihydro-2-oxo-1-pyridyl)-2,2-dimethyl-6-trimethylsilylethynylnaphthalen-1-one]	4800	460	91.5
